According to paper PMC10961402, “Safety, tolerability, pharmacokinetics and pharmacokinetic-pharmacodynamic modeling of cetagliptin in patients with type 2 diabetes mellitus” (Frontiers in Endocrinology, 2024):
Read-outs that look alike come from different tables or passages of the source.

Assays:
[1] = Preliminary efficacy evaluation (FPG, 2 h PPG, HbA1c, GA); type: in vivo, human; conditions: patients with T2DM
Protocol: Blood samples for determination of fasting plasma glucose (FPG) and 2 hour postprandial plasma glucose (2 h PPG) were collected on day -2, day 7 and day 14. Additionally, blood samples for determination of glycated Hemoglobin A1C (HbA1c) and glycated Albumin (GA) were collected on day -2 and day 14. The changes of the above indexes relative to pre-treatment baseline (day -2) were evaluated and compared to investigate the preliminary efficacy of investigational product.

[2] = biological target: T1, DPP-4 (Homo sapiens, UniProt P27487); test: Population PK/PD model (Sigmoid-Emax, DPP-4 inhibition); type: in vivo
T1 construct: from tissue; host or cells: human plasma (K2-EDTA blood from T2DM patients)
From the text: As a result of data with an absolute value of CWRES greater than 5 being excluded, only 554 blood concentrations of cetagliptin were included in development of the PopPK/PD model. A direct-effect model was used to build the PK/PD model; and the model formula was as follows:
DPP−4 inhibition (%)=Emax*C^γ/(EC50γ+C^γ)

[3] = set-up: method as in PMID 34655432; conditions: healthy subjects; single oral doses of 12.5 to 400 mg; cited from earlier work
[4] = system: plasma active GLP-1; set-up: method as in PMID 34965609; conditions: healthy subjects, cited from earlier work
[5] = final model estimate, patients with T2DM

T1 sequence (P27487 39-766 limits assumed): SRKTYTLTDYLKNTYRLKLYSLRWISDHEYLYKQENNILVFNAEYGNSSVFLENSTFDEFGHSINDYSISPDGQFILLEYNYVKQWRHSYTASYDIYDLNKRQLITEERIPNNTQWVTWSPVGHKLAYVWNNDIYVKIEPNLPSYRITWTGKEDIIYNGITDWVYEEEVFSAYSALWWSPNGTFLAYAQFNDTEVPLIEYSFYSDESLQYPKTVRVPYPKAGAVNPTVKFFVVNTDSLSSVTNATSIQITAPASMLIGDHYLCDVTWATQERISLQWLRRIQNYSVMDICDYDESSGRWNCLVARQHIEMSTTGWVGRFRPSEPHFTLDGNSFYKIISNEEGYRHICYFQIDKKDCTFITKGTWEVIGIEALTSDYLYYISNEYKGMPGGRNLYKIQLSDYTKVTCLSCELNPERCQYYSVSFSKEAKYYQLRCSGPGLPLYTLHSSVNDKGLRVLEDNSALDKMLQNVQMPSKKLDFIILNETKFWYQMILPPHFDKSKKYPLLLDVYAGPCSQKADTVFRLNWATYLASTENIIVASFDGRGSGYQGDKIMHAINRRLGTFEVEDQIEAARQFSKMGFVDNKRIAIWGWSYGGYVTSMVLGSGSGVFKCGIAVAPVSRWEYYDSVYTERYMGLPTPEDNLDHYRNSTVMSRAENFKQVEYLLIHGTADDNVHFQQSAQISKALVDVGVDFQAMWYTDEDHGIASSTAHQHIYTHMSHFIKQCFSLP

For `C[C@@H]1c2cnc(C(F)(F)F)n2CCN1C(=O)C[C@H](N)Cc1cc(F)c(F)cc1F.O=P(O)(O)O` [Cetagliptin, cetagliptin], the “change of FPG relative to baseline (day -2)” value ([1]; 50 mg once daily, day 7) was 0.49 mmol/L, the “mean change value of 2h postprandial blood glucose concentration compared with baseline” value (“mean change value” for short) ([1]; 50 mg once daily, day 7, 2 h after breakfast) was -1.54 ± 2.25 mmol/L and the “mean change value” value ([1]; 50 mg once daily, day 7, 2 h after lunch) was -0.29 ± 2.34 mmol/L. The “mean change value” value ([1]; 50 mg once daily, day 7, 2 h after supper) was -1.30 ± 2.50 mmol/L, the “change of FPG relative to baseline (day -2)” value ([1]; 50 mg once daily, day 14) was 0.56 mmol/L and the “change of GA relative to baseline (day -2)” value ([1]; 50 mg once daily, day 14) was 0.53%. For the same compound, the “decrease of HbA1c compared with baseline” value ([1]; 50 mg once daily, day 14) was 0.47%, the “mean change value” value ([1]; 50 mg once daily, day 14, 2 h after lunch) was -0.66 ± 2.26 mmol/L and the “mean change value” value ([1]; 50 mg once daily, day 14, 2 h after supper) was -2.64 ± 2.07 mmol/L. For the same compound, the “decrease of 2 h PPG compared with baseline” value ([1]; 50 mg once daily, day 14 after dinner) was 2.64 mmol/L, the “change of FPG relative to baseline (day -2)” value ([1]; 100 mg once daily, day 7) was -0.11 mmol/L and the “mean change value” value ([1]; 100 mg once daily, day 7, 2 h after breakfast) was -0.54 ± 2.47 mmol/L. For the same compound, the “mean change value” value ([1]; 100 mg once daily, day 7, 2 h after lunch) was -0.61 ± 2.16 mmol/L, the “mean change value” value ([1]; 100 mg once daily, day 7, 2 h after supper) was 1.64 ± 3.22 mmol/L and the “change of FPG relative to baseline (day -2)” value ([1]; 100 mg once daily, day 14) was 0.43 mmol/L. For the same compound, the “change of GA relative to baseline (day -2)” value ([1]; 100 mg once daily, day 14) was -1.70%, the “decrease of HbA1c compared with baseline” value ([1]; 100 mg once daily, day 14) was 0.35% and the “mean change value” value ([1]; 100 mg once daily, day 14, 2 h after lunch) was 1.16 ± 2.05 mmol/L. The “mean change value” value ([1]; 100 mg once daily, day 14, 2 h after supper) was 2.56 ± 2.48 mmol/L, the “tvEC50 (typical value of concentration for 50% of maximal effect)” value ([2]; bootstrap median) was 5.120 and the “tvEmax (typical value of maximum pharmacodynamic effects)” value ([2]; bootstrap median) was 91.78. For the same compound, the “tvGam (typical value of Hill coefficient)” value ([2]; bootstrap median) was 1.008, the “tvEC50 (typical value of concentration for 50% of maximal effect)” value [2, 5] was 5.120 and the “tvEmax (typical value of maximum pharmacodynamic effects)” value [2, 5] was 91.78. For the same compound, the “tvGam (typical value of Hill coefficient)” value [2, 5] was 1.008, the dose-limiting toxicity [3] was “no dose-limiting toxicity observed” and the “accumulation ratios of Rmax and AUEC0-24 h for plasma active GLP-1” value ([4]; 50 mg) was “about 1.0”. For the same compound, the “accumulation ratios of Rmax and AUEC0-24 h for plasma active GLP-1” value ([4]; 100 mg) was “about 1.0”.
